The values below come from ChEMBL document CHEMBL1141822, “Tenellic acids A-D: new bioactive diphenyl ether derivatives from the aquatic fungus Dendrospora tenella” (1999).

The test system of one assay is Candida albicans. Put plainly: Antimicrobial activity against Candida albicans ATCC 14053 at 200 ug/disk. It counts as functional, organism-based.
The test system of a further assay is Bacillus subtilis. Put plainly: Antimicrobial activity against Bacillus subtilis ATCC 6051 at 200 ug/disk. Particulars: read-out: IZ. It is filed as functional.
In the next assay the test system is Staphylococcus aureus. The assay can be described thus: Antimicrobial activity against Staphylococcus aureus ATCC 29213 at 200 ug/disk. It counts as functional. Particulars: read-out: IZ.

Activity calls are given as the source filed them. The rule behind the calls is not given here.

Turning to `COc1c(C(CC(C)C)OC)ccc(Oc2c(O)cc(C)cc2C=O)c1C(=O)O` (stereo not given) [TENELLIC ACID A], the result in the assay with Candida albicans was inactive. The zone of inhibition at 200 µg/disc in the assay with Bacillus subtilis amounted to 11 mm.
Take `COc1c(C(O)CC(C)C)ccc(Oc2c(O)cc(C)cc2C=O)c1C(=O)O` (stereo not given) [TENELLIC ACID B]: in the assay with Candida albicans, the result was inactive. Besides, the zone of inhibition at 200 µg/disc with Bacillus subtilis was 9 mm.
Regarding `COc1c(C(CC(C)C)OC(C)=O)ccc(Oc2c(O)cc(C)cc2C=O)c1C(=O)O` (stereo not given) [TENELLIC ACID C], the outcome with Candida albicans was inactive. Besides, the zone of inhibition at 200 µg/disc was determined as 12 mm with Bacillus subtilis and 14 mm in the assay on Staphylococcus aureus.
For `COc1c(C(CC(C)C)OCC(C)C)ccc(Oc2c(O)cc(C)cc2C=O)c1C(=O)O` (stereo not given) [TENELLIC ACID D], in that order: “inactive”, 29 mm and 25 mm.
